{"source": "patent US20090053154A1", "about": "“MIXTURES OF ETHYLHEXYL P-METHOXYCINNAMATE AND ETHYLHEXYL SALICYLATE” (SYMRISE GmbH & Co. KG, priority 2005, published 2009)", "key": {"[1]": {"assay": "Specific extinction E 1%/1 cm of the UV filter", "type": "physicochemical", "conditions": "EHS versus EHMC", "source_text": "2-Ethylhexyl p-methoxycinnamate (ethylhexyl p-methoxycinnamate, CAS no.: 5466-77-3; USAN: Octinoxate, Neo Heliopan® AV (Symrise trade mark); hereafter abbreviated to EHMC) is a liquid, oil-soluble UV-B filter with a specific extinction E 1%/1 cm at 308 nm of approx. 850 (cf. H&R Contact no. 51, January 1991, pages 3-8). 2-Ethylhexyl p-methoxycinnamate is also frequently abbreviated to octyl methoxycinnamate (OMC) in the literature.\n2-Ethylhexyl salicylate (CAS no.: 118-60-5; USAN: Octisalate, Neo Heliopan® OS (Symrise trade mark); hereafter abbreviated to EHS) is likewise a liquid, oil-soluble UV-B filter with a specific extinction E 1%/1 cm at 305 nm of approx. 180 (cf. H&R Contact no. 51, January 1991, pages 3-8). The specific extinction of EHS is lower than that of EHMC by a factor of about 5.\nThe specific extinction of UV filters is of primary importance as an index for assessing the efficacy in respect of the achievable light protection factor (LPF, hereafter also SPF (sun protection factor)). […] The light protection factor of a (light protection) formulation is a measure of the UV-B protection it can achieve. The absolute SPF values also depend within certain limits on the cosmetic base formulation used."}, "[2]": {"conditions": "cited from earlier work"}, "[3]": {"conditions": "emulsion containing 5 wt. % of EHMC; cited from earlier work"}}, "note": "Like-named read-outs stand apart in the source and are kept apart here.", "data": [{"smiles": "CCCCC(CC)COC(=O)c1ccccc1O", "note": "(stereo not shown) [EHS, 2-Ethylhexyl salicylate]", "values": [{"measurement": "specific extinction lower than that of EHMC by a factor", "setting": "[1]", "value": "about 5"}, {"measurement": "specific extinction E 1%/1 cm", "setting": "[2]; at 305 nm", "value": "approx. 180"}]}, {"smiles": "CCCCC(CC)COC(=O)C=Cc1ccc(OC)cc1", "note": "(stereo not shown) [EHMC, 2-Ethylhexyl p-methoxycinnamate]", "values": [{"measurement": "SPF (in vitro measurement)", "setting": "[3]", "value": 10.1}, {"measurement": "specific extinction E 1%/1 cm", "setting": "[2]; at 308 nm", "value": "approx. 850"}]}]}
